The source made the active and inactive calls.

The source of these data is ChEMBL document CHEMBL6087400, “Synthesis and Biological Evaluation of New Chalcogen Semicarbazone (S, Se) and Their Azole Derivatives against Chagas Disease” (J Med Chem, 2024).

Series [1] can be described thus: Selectivity index, ratio of CC50 for mouse C2C12 cells to EC50 for Trypanosoma cruzi CAI/72 intracellular amastigotes. Type of series: toxicity, cell-based. The conditions noted are these: read-out: Selectivity Index.
Another series concerns Trypanosoma cruzi. The series can be described thus: Anti-trypanosomal activity against Trypanosoma cruzi CAI/72 infected in mouse C2C12 cells at 10 uM incubated for 48 hrs relative to control. It counts as functional.
The test system of series [2] is C2C12. The series can be described thus: Cytotoxicity against mouse C2C12 cells assessed as reduction in cell viability at 40 uM incubated for 72 hrs by DAPI staining based microscopic analysis relative to control. Type of series: toxicity. The conditions noted are these: c2c12, 72 h.
For series [3], the system named is C2C12. The series can be described thus: Cytotoxicity against mouse C2C12 cells assessed as reduction in cell viability at 3 uM incubated for 72 hrs by DAPI staining based microscopic analysis relative to control. Type of series: toxicity. The conditions noted are these: c2c12, 72 h.
For series [4], the target named is Cruzipain (Trypanosoma cruzi) (UniProt P25779). The series can be described thus: Inhibition of Trypanosoma cruzi cruzain using Z-FR-AMC as substrate measured after 10 mins relative to control.
Chain of Cruzipain (Trypanosoma cruzi) (P25779 123-467 limits assumed): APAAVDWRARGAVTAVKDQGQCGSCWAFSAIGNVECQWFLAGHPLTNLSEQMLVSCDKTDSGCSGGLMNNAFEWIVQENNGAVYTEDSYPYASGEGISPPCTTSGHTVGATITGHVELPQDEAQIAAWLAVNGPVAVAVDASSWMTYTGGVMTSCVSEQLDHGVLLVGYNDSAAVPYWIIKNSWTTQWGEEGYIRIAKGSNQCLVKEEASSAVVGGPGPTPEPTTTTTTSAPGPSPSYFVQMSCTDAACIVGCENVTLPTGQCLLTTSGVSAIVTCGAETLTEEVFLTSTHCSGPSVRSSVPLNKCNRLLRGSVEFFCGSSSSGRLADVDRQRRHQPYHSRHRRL
The test system of series [5] is C2C12. Briefly: Cytotoxicity against mouse C2C12 cells assessed as reduction in cell viability at 10 uM incubated for 72 hrs by DAPI staining based microscopic analysis relative to control. Type of series: toxicity. The conditions noted are these: c2c12, 72 h.
Series [6] can be described thus: Antioxidant activity assessed as inhibition of DPPH radical scavenging activity at 0.06 mg/ml measured after 2 hrs by absorbance based analysis relative to control. Type of series: functional. Set-up: scale not given: the % may be the effect or the level left.
Series [7] is described as follows: Antioxidant activity assessed as inhibition of DPPH radical scavenging activity at 0.03 mg/ml measured after 2 hrs by absorbance based analysis relative to control. Type of series: functional. Set-up: scale not given: the % may be the effect or the level left. A general note: The DPPH test is a chemical assay of radical scavenging.
Series [8] can be described thus: Antioxidant activity assessed as inhibition of DPPH radical scavenging activity at 0.015 mg/ml measured after 2 hrs by absorbance based analysis relative to control. It counts as functional. More on the design: scale not given: the % may be the effect or the level left.
A short description of series [9]: Half life in female Balb/c mouse at 50 mg/kg, po by mass spectrometry. Type of series: ADME, organism-based. The following applies: in vivo.

For the molecule `C/C(=N\Nc1nc(C)c[se]1)c1cccc(Cl)c1`, the selectivity ratio in series [1] was above 19. Consider `C/C(=N\Nc1nc(C)cs1)c1ccc(C(F)(F)F)cc1`, for which the result in the series with Trypanosoma cruzi was inactive. In the case of `C/C(=N\NC(N)=S)c1cccc(Cl)c1`, the selectivity ratio in series [1] was around 1. Regarding `O=C(Cn1ccnc1[N+](=O)[O-])NCc1ccccc1` [BENZNIDAZOLE], in series [1], the selectivity ratio is above 6.91. The Activity in the series on C2C12 [2] is above 100%. `CN1CCN(C(=O)N[C@@H](Cc2ccccc2)C(=O)N[C@H](/C=C/S(=O)(=O)c2ccccc2)CCc2ccccc2)CC1` [K-777]: the Activity in the series on C2C12 [3] is above 100%. As to `C/C(=N\NC(N)=S)[C@]12CC3C[C@@H](C[C@H](C3)C1)C2`, the inhibition in [4] came out at 5.06%.

Turning to `COc1cccc(/C(C)=N/Nc2nc(C)c[se]2)c1`, the selectivity ratio in series [1] is above 3.75. Consider `COc1ccc(/C(C)=N/NC(N)=[Se])c(OC)c1`, for which, in the series with Trypanosoma cruzi, the outcome was inactive.

Regarding `C/C(=N\NC(N)=S)c1ccc(C#N)cc1`, the figures for the Activity with C2C12 [5] and with Trypanosoma cruzi were above 100% and 31.58%, respectively. In addition, the inhibition in [4] worked out at 98.8%. The matching figures for `C/C(=N\NC(N)=S)c1ccsc1`: above 100%, 10.89% and 62.8%.

On to `C/C(=N\NC(N)=S)C12CC3C[C@H](C1)C[C@H](C3)C2`, for which the results for the Activity in the series with C2C12 [5] and in the series with Trypanosoma cruzi were above 100% and 38.73%, respectively.

Regarding `C/C(=N\NC(N)=[Se])c1ccc(F)c(F)c1`, in the series with Trypanosoma cruzi, the result was inactive. Consider `C/C(=N\NC(N)=[Se])c1ccc(Br)cc1`, for which the selectivity ratio in series [1] is above 13. Consider `C/C(Cc1cccc(Cl)c1)=N\NC(N)=S`, for which the selectivity ratio in series [1] was above 3.42.

As for `C/C(=N\Nc1nc(C)cs1)c1ccc([N+](=O)[O-])cc1`, the outcome in the series on Trypanosoma cruzi was inactive.

Consider `C/C(=N\Nc1nc(C)c[se]1)c1cccc([N+](=O)[O-])c1.Cl`, for which the selectivity ratio in series [1] was above 32.5. The Activity in series [6] was 78.3%; in series [7], 78%; in series [8], 77.3%. Besides, the half-life in series [9] is 1 h.

In the case of `C/C(=N\Nc1nc(C)c[se]1)C12CC3CC(CC(C3)C1)C2`, the inhibition entry in series [4] was “inactive”. Turning to `O=C1O[C@H]([C@@H](O)CO)C(O)=C1O`, the values for the Activity in series [6], in series [7] and in series [8] were 80.3%, 80.3% and 65.3%, respectively. As for `C/C(=N\Nc1nc(C)c[se]1)c1ccsc1`, the selectivity ratio in series [1] is above 2.68. Besides, the inhibition entry in [4] was “inactive”. For the molecule `COc1ccc(/C(C)=N/Nc2nc(C)c[se]2)c(OC)c1`, the inhibition entry in series [4] is “inactive”.

As a reminder, the inhibition is how much of the control response was suppressed. As usually defined, the half-life is the time needed for the level to fall by half in the phase considered.
